Experimental data reported in patent US7989467B2, “Use of indole-derived compounds for the preparation of a medicament that can be used to treat diseases related to the splicing process” (Centre National de la Recherche Scientifique (CNRS), priority 2003, dated 2011).
Values belong to the molecule of their own block, whether it stands above or below them.

Legend:
SRp55 = molecular target: T1, SRp55 (Homo sapiens, UniProt Q13247); experiment: In vitro splicing results, Table 3: SRp55; type: biochemical; conditions: summary of Table 3
T1 sequence (Q13247 1-344): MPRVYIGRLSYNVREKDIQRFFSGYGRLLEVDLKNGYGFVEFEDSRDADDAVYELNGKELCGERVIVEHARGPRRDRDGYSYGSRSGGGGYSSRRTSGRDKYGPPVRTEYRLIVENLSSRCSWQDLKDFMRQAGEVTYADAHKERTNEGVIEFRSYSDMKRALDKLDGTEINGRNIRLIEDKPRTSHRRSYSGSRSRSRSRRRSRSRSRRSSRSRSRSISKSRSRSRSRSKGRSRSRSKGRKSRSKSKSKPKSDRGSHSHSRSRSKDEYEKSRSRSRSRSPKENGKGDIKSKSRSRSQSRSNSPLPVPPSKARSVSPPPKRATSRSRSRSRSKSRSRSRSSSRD

HIV = experiment: Inhibition of HIV multiplication in PMA-stimulated U1 cells (RT-PCR of viral transcripts); type: cell-based; conditions: 2.5 μM; 24 h; U1 cells treated with 50 nM PMA; FIG. 6
Text: To this end, human […] cell line U1, which is chronically infected by HIV (Folks et al., 1988. Characterization of a promonocyte clone chronically infected with HIV and inducible by 13-phorbol-12-myristate acetate. J. Immunol., 140: 1117-1122) and which produces large quantities of virus after stimulation by PMA (phorbol myristate acetate), was used. As a result, this cell line constitutes an excellent model to mimic the transition between the latency phase and the viral production phase observed in patients infected by HIV.
The results of this experiment are presented in FIG. 6 in which U1 cells (5×10^5) were treated with 50 nM of PMA in the absence (FIG. 6, lane 1) or in the presence of 2.5 μM of compounds C47, C97, C58, C57, C92, C91, C90, C83, C73, C34, C51, C45, C13, C10, C44, C6, C7, C41, C50, C32, C2, C1, C29, C35 and C99 (FIG. 6, lanes 3-27, respectively). After 24 h of treatment, the virus's transcripts were amplified by RT-PCR using specific VIH, BSS and SJ4.7A primers (Jacquenet et al., 2001, A second exon splicing silencer within human immunodeficiency virus type 1 tat exon 2 represses splicing of Tat mRNA and binds protein hnRNP. H. J. Biol. Chem. 276: 40464-75) and a radioactive tracer (α-32P) CTP.

M3S1 pre-messenger = experiment: In vitro splicing of M3S1 pre-messenger RNA (dependent on ESE recognized by SR ASF/SF2 protein); type: biochemical, human; conditions: for effect on M3S1 splicing: concentration not given; for M3S1 splicing inhibition: 10 μM, FIG. 2
Experimental: The compounds presented in Tables 1 and 2 below were tested in a concentration range of 1 μM, 10 μM and 100 μM, and were selected initially on the basis of their capacity to inhibit, in vitro, the splicing of two types of model pre-mRNAs.
The second type of M3S1 pre-messenger is derived from the human […] gene (Labourier, E. et al. (1999), Antagonism between RSF1 and SR proteins for both splice-site recognition in vitro and Drosophila development. Genes Dev. 13, 740-753) and its splicing is strictly dependent on an auxiliary ESE sequence recognized specifically by the SR ASF/SF2 protein. Conditions for the transcription, splicing and analysis of this pre-messenger's products are identical to those used for the MINX pre-messenger.

[1] = test system: M3S1-PDH pre-messenger RNA; experiment: Splicing of M3S1-PDH pre-messenger RNA (pyruvate dehydrogenase E1α subunit, mutated intron 7); type: biochemical, human; conditions: for M3S1-PDH splicing: FIG. 4B
Text: In this substrate the sequences corresponding to exon 7-intron 7-exon 8 of the gene coding for the pyruvate dehydrogenase E1α subunit (PDH E1α) are inserted downstream from the M3S1 sequence (M3S1-PDH, see FIG. 4A). Intron 7 of this transcript contains a point mutation which creates a high affinity SR hSC35 protein binding site. This mutation, which causes the loss of PDH E1α expression in patients suffering from Leigh syndrome (an encephalopathy in children), leads to the appearance of a cryptic site 46 nucleotides downstream from the authentic 5′ splicing site (FIG. 4A). This substrate, likely to give rise to two products, one with and one without the 46 nucleotides of PDH intron 7, is ideal for determining the specificity of the compounds with respect to the various ESE sequences present within the same transcript.
Compound C7 is thus an excellent inhibitor of defective splicing that is dependent on hSC35 ESE, but not on authentic splicing. This compound can thus be envisaged for treating patients suffering from this encephalopathy.

GFP-ESE transgene = experiment: ESE-dependent splicing of GFP-ESE transgene mRNA in HeLa cells (RT-PCR); type: cell-based, human; conditions: 1 μM per FIG. 5 legend
Text: In order to test the efficiency of indole derivatives ex vivo, […] HeLa cell lines were established stably expressing a transgene corresponding to GFP whose sequence was interrupted by an ESE sequence flanked by two identical introns of the human […] gene described in Example 1 (see FIG. 5A).
To detect the messenger RNAs arising from the splicing of this gene, the RT-PCR technique was used with primers in the GFP sequence on each side of the ESE and the PCR products were analyzed on agarose gel.
In almost all the lines established, a single fragment of 250 base pairs (bp) was amplified by PCR (FIG. 5A, lanes 2 and 3) and it corresponds to an RNA messenger which included the ESE between the two GFP sequences.

[2] = test system: M3S1 transcript splicing complexes; experiment: In vitro splicing-complex formation on M3S1 transcript; type: biochemical, human; conditions: 50 μM; 30 minutes of incubation; FIG. 3
Text: The activity of the products has also been tested in splicing-complex formation reactions in vitro (FIG. 3) as described in Pilch B. et al. (Specific inhibition of serine- and arginine-rich splicing factors, phosphorylation, spliceosome assembly, and splicing by the antitumor drug NB-506. Cancer Res. 2001. 61, 6876-6884).
M3S1 transcript splicing reactions in the presence of various compounds according to the invention performed under the same conditions as those described for FIG. 1 are stopped after 30 minutes of incubation by the addition of heparin and glycerol at a final concentration of 1 mg/ml and 15%, respectively.

Compound: CNCCCNc1ncc(C)c2[nH]c3ccc4cc(OC)ccc4c3c12 [C57, N-(3-methoxy-8-methyl-7H-benzo[e]pyrido[4,3-b]indol-11-yl)-N′-methyl-propane-1,3-diamine]
inhibit the activity of the SRp55 protein specifically (SRp55): inhibit the activity of the SRp55 protein specifically
inhibition of HIV multiplication (amplification of viral transcripts) (HIV): excellent inhibitors of HIV multiplication

Compound: CCN(CC)CCNc1nccc2c(C)c3c(cc12)c1cc(OC)ccc1n3C [C50, N,N-diethyl-N′-(9-methoxy-5,6-dimethyl-6H-pyrido[4,3-b]carbazol-1-yl)-ethane-1,2-diamine]
inhibit the activity of the SRp55 protein specifically (SRp55): inhibit the activity of the SRp55 protein specifically
inhibition of HIV multiplication (amplification of viral transcripts) (HIV): excellent inhibitors of HIV multiplication

M3S1-PDH splicing [1]: has no effect
Compound: CC(=O)Oc1nccc2c(C)c3[nH]c4ccc(O)cc4c3cc12 [C4, 9-hydroxy-5-methyl-6H-pyrido[4,3-b]carbazol-1-yl acetic acid ester]
effect on M3S1 splicing (M3S1 pre-messenger): inactive on M3S1

RNA species from normal PDH splicing ([1]; FIG. 4B lane 4): has no effect
formation of RNA species arising from PDH splicing that include the 46 nucleotides of intron 7 (defective splicing dependent on hSC35 ESE) ([1]; FIG. 4B lane 4): blocks the formation
Compound: COc1ccc2[nH]c3c(C)c4ccncc4c(NCCCN(C)C)c3c2c1 [C7, N′(9-methoxy-5-methyl-6H-pyrido[4,3-b]carbazol-11-yl)-N,N-dimethyl-propane-1,3-diamine]
effect on M3S1 splicing (M3S1 pre-messenger): do not modify M3S1 splicing

M3S1-PDH splicing [1]: Inhibition of M3S1-PDH
Compound: CCN(CC)CCCNc1nccc2c(C)c3[nH]c4ccc(OC)cc4c3cc12 [C8, N,N-diethyl-N′-(9-methoxy-5-methyl-6H-pyrido[4,3-b]carbazol-1-yl)-propane-1,3-diamine]

Compound: COc1ccc2[nH]c3c(C)c4ccnc(NCCCN5CCN(CCCN)CC5)c4cc3c2c1 [C14]
M3S1 splicing inhibition (M3S1 pre-messenger): M3S1 splicing inhibition
splicing profile of the GFP-ESE transgene (RT-PCR fragment without ESE) (GFP-ESE transgene): revealed a fragment of 194 bp
inhibition of the formation of splicing complexes A and B on M3S1 [2]: inhibition of the formation of splicing complexes A and B

Compound: Cc1c2ccnc(Cl)c2cc2c3cn(C)ccc-3nc12 [C3, 10-chloro-2,6-dimethyl-2H-pyrido[3′,4′:4,5]pyrrolo[2,3-g]isoquinoline]
M3S1 splicing inhibition (M3S1 pre-messenger): M3S1 splicing inhibition
inhibition of the formation of splicing complexes A and B on M3S1 [2]: inhibition of the formation of splicing complexes A and B

Compound: CCN(CC)CCC(C)Nc1nccc2c(C)c3c(cc12)c1cnccc1n3C (stereo not shown) [C28, N-3-(5,6-dimethyl-5H-pyrido[3′,4′:4,5]pyrrolo[2,3-g]isoquinolin-10-yl)-N,N-1-diethyl-butane-1,3-diamine]
splicing profile of the GFP-ESE transgene (RT-PCR fragment without ESE) (GFP-ESE transgene): revealed a fragment of 194 bp
